Literature values, collected in US11504333B2, “Pharmaceutical composition” (NOVARTIS AG, priority 2017, dated 2022).
“Also recorded” adds a separate entry of the source. Read-outs that look alike come from different tables or passages of the source.

Experiments:
[1] = not given; remark: listed apart in the source

Solubility (slightly acidic, neutral pH, and basic media): practically insoluble
Solubility (strongly acidic aqueous media): very slightly soluble
Permeability [1]: high permeability
Compound: CC(C)(C)c1nc(-c2cccc(NS(=O)(=O)c3c(F)cccc3F)c2F)c(-c2ccnc(N)n2)s1.CS(=O)(=O)O [Compound A, N-{3-[5-(2-Amino-4-pyrimidinyl)-2-(1,1-dimethylethyl)-1,3-thiazol-4-yl]-2-fluorophenyl}-2,6-difluorobenzenesulfonamide, methanesulfonate salt]
Solubility (general) (aqueous, methanesulfonate salt): low solubility; also recorded: poor aqueous solubility
